From US20160200716A1, “COBICISTAT DICHLOHYDRATE SALT” (ASSIA CHEMICAL INDUSTRIES LTD., priority 2012, published 2016)
Where a name gives a salt, the structure may show the parent alone.

Key:
[1] = Measurements of bulk density of mono- and dihydrochloride salts of Cobicistat; format: physicochemical; conditions: for volume filled by the salt in a glass cylinder (bulk density): about 0.30 g freely poured into glass cylinder without compaction, FIG. 12
Excerpt: Measurements of Bulk Density of Mono-and Dihydrochloride Salts of Cobicistat:
Cobicistat monohydrochloride and dihydrochloride, prepared according to examples 7 and 5 respectively, (about 0.30 g) were freely poured into two glass cylinders without compaction. While 0.30 g of Cobicistat monohydrochloride filled a volume of almost 5m1, 0.30 g of Cobicistat dihydrochloride filled a volume of less than 2m1.

[2] = Powder flowability / handling properties of Cobicistat hydrochloride salts; format: physicochemical; conditions: particle-shaped morphology, FIG. 9

Compound	volume filled by the salt in a glass cylinder (bulk density) [1]	bulk density compared with the monohydrochloride salt ([1]; as demonstrated in FIG. 12)	flowability of the powder material [2]
CC(C)c1nc(CN(C)C(=O)N[C@@H](CCN2CCOCC2)C(=O)N[C@H](CC[C@H](Cc2ccccc2)NC(=O)OCc2cncs2)Cc2ccccc2)cs1 [Cobicistat dihydrochloride]	less than 2 m1	substantially higher	highly flowable
CC(C)c1nc(CN(C)C(=O)N[C@@H](CCN2CCOCC2)C(=O)N[C@H](CC[C@H](Cc2ccccc2)NC(=O)OCc2cncs2)Cc2ccccc2)cs1 [Cobicistat monohydrochloride, reference compound]	~5 m1		
